From patent publication US9855243B2, “Topical anti-inflammatory pharmaceutical composition with zileuton cream formulation” (Qurient Co., Ltd., priority 2013, dated 2018)

Assay: Solution stability test of zileuton in solvents (TRS %)
Type: physicochemical
Conditions: for TRS increase rate %: Day 0 to Day 8
Experimental: In the solution stability test, suitability with solvents for solubilizing zileuton (ethanol, PEG400, propylene glycol, hexylene glycol, capryol 90, benzyl alcohol, water) was screened.
As a result, as illustrated in Tables 2 and 3 below, most of the solvents were suitable to zileuton under the 25° C. condition, but were unstable under the condition of 40° C. or 70° C.

SMILES: CC(c1cc2ccccc2s1)N(O)C(N)=O (racemic) [Zileuton, (±)-1-(1-(benzo [b]thiophen-2-yl)ethyl)-1-hydroxyurea]
- TRS (%) (in Benzyl alcohol, 25° C., Day 0): 1.642%
- TRS increase rate % (in Benzyl alcohol, 25° C.): 0.381%
- TRS (%) (in Benzyl alcohol, 25° C., Day 1): 0.869%
- TRS (%) (in Benzyl alcohol, 25° C., Day 3): 1.806%
- TRS (%) (in Benzyl alcohol, 25° C., Day 8): 2.023%
- TRS (%) (in Benzyl alcohol, 70° C., Day 0): 1.642%
- TRS increase rate % (in Benzyl alcohol, 70° C.): 22.608%
- TRS (%) (in Benzyl alcohol, 70° C., Day 1): 11.350%
- TRS (%) (in Benzyl alcohol, 70° C., Day 3): 20.397%
- TRS (%) (in Benzyl alcohol, 70° C., Day 8): 24.250%
- TRS (%) (in Capryol 90, 25° C., Day 0): 1.623%
- TRS increase rate % (in Capryol 90, 25° C.): 0.578%
- TRS (%) (in Capryol 90, 25° C., Day 1): 1.444%
- TRS (%) (in Capryol 90, 25° C., Day 3): 1.478%
- TRS (%) (in Capryol 90, 25° C., Day 8): 2.201%
- TRS (%) (in Capryol 90, 70° C., Day 0): 1.623%
- TRS increase rate % (in Capryol 90, 70° C.): 74.822%
- TRS (%) (in Capryol 90, 70° C., Day 1): 10.312%
- TRS (%) (in Capryol 90, 70° C., Day 3): 39.603%
- TRS (%) (in Capryol 90, 70° C., Day 8): 76.445%
- TRS (%) (in Ethanol, 25° C., Day 0): 1.255%
- TRS increase rate % (in Ethanol, 25° C.): 0.882%
- TRS (%) (in Ethanol, 25° C., Day 1): 1.014%
- TRS (%) (in Ethanol, 25° C., Day 3): 1.951%
- TRS (%) (in Ethanol, 25° C., Day 8): 2.137%
- TRS (%) (in Ethanol, 40° C., Day 0): 1.255%
- TRS increase rate % (in Ethanol, 40° C.): 3.449%
- TRS (%) (in Ethanol, 40° C., Day 1): 1.778%
- TRS (%) (in Ethanol, 40° C., Day 3): 2.375%
- TRS (%) (in Ethanol, 40° C., Day 8): 4.704%
- TRS (%) (in Hexylene glycol, 25° C., Day 0): 1.505%
- TRS increase rate % (in Hexylene glycol, 25° C.): 0.475%
- TRS (%) (in Hexylene glycol, 25° C., Day 1): 1.448%
- TRS (%) (in Hexylene glycol, 25° C., Day 3): 1.583%
- TRS (%) (in Hexylene glycol, 25° C., Day 8): 1.980%
- TRS (%) (in Hexylene glycol, 70° C., Day 0): 1.505%
- TRS increase rate % (in Hexylene glycol, 70° C.): 58.847%
- TRS (%) (in Hexylene glycol, 70° C., Day 1): 8.061%
- TRS (%) (in Hexylene glycol, 70° C., Day 3): 29.999%
- TRS (%) (in Hexylene glycol, 70° C., Day 8): 60.352%
- TRS (%) (in Polyethylene glycol (PEG-400), 25° C., Day 0): 1.427%
- TRS increase rate % (in Polyethylene glycol (PEG-400), 25° C.): 2.638%
- TRS (%) (in Polyethylene glycol (PEG-400), 25° C., Day 1): 1.491%
- TRS (%) (in Polyethylene glycol (PEG-400), 25° C., Day 3): 2.897%
- TRS (%) (in Polyethylene glycol (PEG-400), 25° C., Day 8): 4.065%
- TRS (%) (in Polyethylene glycol (PEG-400), 70° C., Day 0): 1.427%
- TRS increase rate % (in Polyethylene glycol (PEG-400), 70° C.): 95.715%
- TRS (%) (in Polyethylene glycol (PEG-400), 70° C., Day 1): 43.725%
- TRS (%) (in Polyethylene glycol (PEG-400), 70° C., Day 3): 94.366%
- TRS (%) (in Polyethylene glycol (PEG-400), 70° C., Day 8): 97.142%
- TRS (%) (in Propylene glycol, 25° C., Day 0): 1.457%
- TRS increase rate % (in Propylene glycol, 25° C.): 0.675%
- TRS (%) (in Propylene glycol, 25° C., Day 1): 1.624%
- TRS (%) (in Propylene glycol, 25° C., Day 3): 1.478%
- TRS (%) (in Propylene glycol, 25° C., Day 8): 2.132%
- TRS (%) (in Propylene glycol, 70° C., Day 0): 1.457%
- TRS increase rate % (in Propylene glycol, 70° C.): 94.868%
- TRS (%) (in Propylene glycol, 70° C., Day 1): 26.382%
- TRS (%) (in Propylene glycol, 70° C., Day 3): 82.228%
- TRS (%) (in Propylene glycol, 70° C., Day 8): 96.325%
- TRS (%) (in Water, 25° C., Day 0): 1.424%
- TRS increase rate % (in Water, 25° C.): 0.541%
- TRS (%) (in Water, 25° C., Day 1): 1.879%
- TRS (%) (in Water, 25° C., Day 3): 1.816%
- TRS (%) (in Water, 25° C., Day 8): 1.965%
- TRS (%) (in Water, 70° C., Day 0): 1.424%
- TRS increase rate % (in Water, 70° C.): 90.570%
- TRS (%) (in Water, 70° C., Day 1): 35.171%
- TRS (%) (in Water, 70° C., Day 3): 80.268%
- TRS (%) (in Water, 70° C., Day 8): 91.994%
